# Data: patent publication US20240174684A1, “INHIBITORS OF cGAS ACTIVITY AS THERAPEUTIC AGENTS” (BELLBROOK LABS, LLC, priority 2021, published 2024)
# Where two headings read alike, the source gives them in different places.
# What was measured:
# [1] = test system: IFNβ production in THP-1 cells; assay: IFNβ ELISA in THP-1 cells; assay type: cell-based, human; details: Homo sapiens; THP-1 cells
# Text: (§1) Cellular assays: The human monocyte cell line THP-1 and human primary PBMCs were used to evaluate the cellular activity of compounds with good biochemical potency. These cells produce a robust cGAS/STING-dependent type I IFN response when stimulated with dsDNA and other pathogen-associated molecular patterns, which was detected using a standard ELISA for IFNβ (R&D Systems). The TBK1 inhibitor, BX-795, which acts downstream of cGAS/STING, was used as a probe.
# CETSA was also used to confirm that the compounds are binding to cGAS in cells; THP-1 cells are used for this analysis. Compounds were tested in dose response mode by incubating with cells for 1.5 hours at 37° C., followed by pelleting and re-suspending in PBS, heating to 51.5° C. for 3 min and cooling to room temp. Cells were then lysed, debris, including denatured cGAS, was pelleted and the supernatant was analyzed for soluble cGAS by Western Blot using anti-cGAS primary Ab (Cell Signaling). Band intensity was analyzed using Image J software. Stimulation with cGAMP directly activates STING, circumventing cGAS; this was used to determine if compounds had effects on downstream components of cGAS/STING signaling. The IFN-6 ELISA was used as the primary measure of cellular potency and selectivity (Table 3) and used the reporter gene assays for assessing off-target activity with other pattern recognition receptors.
# (§2) The ICso values for IFNB ELISA stimulated with THP-1, PBMC, DNA, and cGAMP were determined for several exemplary compounds of the invention, and are provided in Table 3 where A represents <1 μM; B represents 1-2.5 μM; C represents 2.5-10 μM; D represents 10-20 μM; and E represents >20 μM.
# cGAS = cGAS (Homo sapiens, UniProt Q8N884); assay: Transcreener cGAS enzymatic assay (FP); assay type: biochemical
# Procedure: Structural, biochemical and biophysical analysis and selectivity profiling: Potency and MOA studies, including Mn^2+ sensitivity, were performed using the Transcreener cGAS enzymatic assay, which is manufactured at BellBrook Labs (Fitchburg, Wisconsin, USA). This homogenous cGAS enzymatic assay was developed with fluorescence polarization (FP) and time-resolved Forster resonance energy transfer (TR-FRET) readouts, as described in International Patent Publication WO 2020/142729, incorporated by reference herein in its entirety. Plates are read on a PHERAstar FSX multimode reader (BMG). The compounds of the disclosure were tested for inhibition of cGAS ([…]) using this cGAS enzymatic assay under standard conditions (100 μM ATP and GTP, 62.5 nM bp ISD, 60 minute reactions), high ATP and GTP (1 mM) to mimic physiological conditions, in the presence of 200 μM MnCl2, and with mouse cGAS under standard conditions.
# The IC50 values for FP under standard and under physiological conditions were determined for several exemplary compounds of the invention. The relative activities for FP Standard IC50 are shown in Table 2 below, where A represents <50 nM; B represents 50-100 nM; C represents 100-200 nM; D represents 200 nM-1μM; and E represents 1-10 μM. For the relative activities for FP Physiological IC50, A′ represents <200 nM; B′ represents 200-500 nM; C′ represents 500 nM-1μM; D′ represents 1-5 μM; and E′ represents >5 μM.
# [2] = test system: IFN-β production in PBMCs; assay: IFNβ ELISA in human primary PBMCs; assay type: cell-based; details: PBMC
# Text: as §1, §2
# The reporter gene assays were used to assess off-target activity with IRF30Luc (RIG-1) or NFKB (TLR4); CellTiter Glo (ATP levels) and Presto Blue (reducing equivalents) were used to assess cytotoxicity; all assays were performed in dose response mode. […] The inventors recently began using human PBMCs to assess cellular potency in a more physiologically relevant context.
# MDR1 (P-glycoprotein) = assay: MDCK-MDR1 permeability A→B; assay type: in vitro ADME, Canine; details: dog; MDCK cells expressing human MDR1, A→B; read-out: MDCK-MDR Permeability A→B
# Procedure: (§3) ADME studies: Compound A and the compounds of the disclosure were tested for aqueous solubility (KSOL), metabolic stability (human and mouse […]) and permeability (Caco-2 and/or MDR1-MDCK cells) to provide an initial indication of oral bioavailability.
# (§4) The favorable physicochemical properties are reflected in promising results in in vitro ADME tests. […] Metabolic stability, which was routinely measured with mouse and human hepatocytes, is outstanding, with t, greater than 2 hours for all of the compounds of the disclosure in which it has been measured. Cell permeability was measured using MDCK cells expressing human MDR1 (P-glycoprotein) to assess passive permeability as well as active transport out of the cell. […] Numerous compounds in Table 1 meet these permeability criteria, which is consistent with their design for TPSA <140 Å^2 and increased lipophilicity.
# (§5) The MDCK-MDR1 permeability A ->B is shown in Table 2 below, where A represents 5-10 cm/s×10^−6; B represents 1-5 cm/s×10^−6; and C represents <1 cm/ss×10^−6. The metabolic stability half time, in both mouse and human hepatocytes, is also shown in Table 2 below, where A′ represents 100-200 minutes; B′ represents 200-300 minutes; and C′ represents >300 minutes.
# [3] = test system: MDCK cells expressing human MDR1 (P-glycoprotein); assay: MDCK-MDR1 permeability A→B; assay type: in vitro ADME, Canine
# Procedure: as §3, §4, §5
# [4] = high ATP and GTP (1 mM) to mimic physiological conditions, read-out: IC50 FP Physiological
# [5] = standard conditions: 100 μM ATP and GTP, 62.5 nM bp ISD, 60 minute reactions, read-out: IC50 FP Standard
# Chain of cGAS (Q8N884 whole entry): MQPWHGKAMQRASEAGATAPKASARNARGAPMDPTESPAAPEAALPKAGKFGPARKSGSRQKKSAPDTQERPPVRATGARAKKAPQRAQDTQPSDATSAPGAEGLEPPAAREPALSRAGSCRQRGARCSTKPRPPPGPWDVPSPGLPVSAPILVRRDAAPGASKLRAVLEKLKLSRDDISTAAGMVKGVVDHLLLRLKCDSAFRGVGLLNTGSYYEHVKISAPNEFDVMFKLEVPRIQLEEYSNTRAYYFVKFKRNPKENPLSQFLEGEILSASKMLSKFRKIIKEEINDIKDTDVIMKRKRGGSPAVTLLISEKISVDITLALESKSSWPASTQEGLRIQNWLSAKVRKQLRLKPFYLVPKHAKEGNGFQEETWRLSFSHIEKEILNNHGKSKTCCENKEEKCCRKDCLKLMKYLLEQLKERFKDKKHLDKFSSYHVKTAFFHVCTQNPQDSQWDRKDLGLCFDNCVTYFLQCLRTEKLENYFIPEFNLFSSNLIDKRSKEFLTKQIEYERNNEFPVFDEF
Compound,IC50 [1] [nM],IC50 (cGAS; [4]) [nM],IC50 (cGAS; [5]) [nM],IC50 [2] [nM],Papp A→B (MDR1 (P-glycoprotein)) [×10⁻⁶ cm/s],MDCK-MDR Permeability A→B [3]
"Cc1nc(N2C[C@@H](CC(=O)Nc3ccc(-c4cccnc4N)cc3)C[C@H]2C(=O)O)c2oc3ccccc3c2n1 [Compound 43, (28.4R)-4-(2-((4-(2-aminopyridin-3-yl)phenyl)amino)-2-oxoethyl)-1-(2-methylbenzofuro[3,2-d]pyrimidin-4-yl)pyrrolidine-2-carboxylic acid]",> 20000,500 to 1000,100 to 200,> 20000,–,–
"Cc1nc(N2C[C@@H](CC(=O)Nc3ccc4ccncc4c3)C[C@H]2C(=O)O)c2oc3ccccc3c2n1 [Compound 34, (28.4R)-4-(2-(isoquinolin-7-ylamino)-2-oxoethyl)-1-(2-methylbenzofuro[3,2-d]pyrimidin-4-yl)pyrrolidine-2-carboxylic acid]",2500 to 10000,200 to 500,< 50,2500 to 10000,1 to 5,–
"Cc1nc(N2C[C@@H](CC(=O)Nc3ccc(-c4ccc5cn[nH]c5c4)cc3)C[C@H]2C(=O)O)c2oc3ccccc3c2n1 [Compound 39, (28.4R)-4-(2-((4-(1H-indazol-6-yl)phenyl)amino)-2-oxoethyl)-1-(2-methylbenzofuro[3,2-d]pyrimidin-4-yl)pyrrolidine-2-carboxylic acid]",2500 to 10000,500 to 1000,100 to 200,2500 to 10000,–,–
"Cc1nc(N2C[C@@H](CC(=O)Nc3cccc(Cl)c3)C[C@H]2C(=O)O)c2oc3ccccc3c2n1 [Compound 22, (2S,4R)-4-(2-((3-chlorophenyl)amino)-2-oxoethyl)-1-(2-methylbenzofuro[3,2-d]pyrimidin-4-yl)pyrrolidine-2-carboxylic acid]",2500 to 10000,1000 to 5000,100 to 200,10000 to 20000,1 to 5,–
"Cc1nc(N2C[C@@H](CC(=O)Nc3ccc(N4CCCCC4)cc3)C[C@H]2C(=O)O)c2oc3ccccc3c2n1 [Compound 7, (2S,4R)-1-(2-methylbenzofuro[3,2-d]pyrimidin-4-yl)-4-(2-oxo-2-((4-(piperidin-1-yl)phenyl)amino)ethyl)pyrrolidine-2-carboxylic acid]",10000 to 20000,1000 to 5000,200 to 1000,10000 to 20000,1 to 5,–
"Cc1nc(N2C[C@@H](CC(=O)Nc3ccc(-c4ccc(N)nc4)cc3)C[C@H]2C(=O)O)c2oc3ccccc3c2n1 [Compound 40, (2S,4R)-4-(2-((4-(6-aminopyridin-3-yl)phenyl)amino)-2-oxoethyl)-1-(2-methylbenzofuro[3,2-d]pyrimidin-4-yl)pyrrolidine-2-carboxylic acid]",10000 to 20000,200 to 500,< 50,> 20000,–,–
"Cc1nc(N2C[C@@H](CC(=O)Nc3ccc4cnccc4c3)C[C@H]2C(=O)O)c2oc3ccccc3c2n1 [Compound 33, (2S,4R)-4-(2-(isoquinolin-6-ylamino)-2-oxoethyl)-1-(2-methylbenzofuro[3,2-d]pyrimidin-4-yl)pyrrolidine-2-carboxylic acid]",2500 to 10000,1000 to 5000,100 to 200,10000 to 20000,–,C (C represents <1 cm/ss×10^−6)
"Cc1nc(N2C[C@@H](CC(=O)Nc3ccc4cccnc4c3)C[C@H]2C(=O)O)c2oc3ccccc3c2n1 [Compound 35, (28,4R)-1-(2-methylbenzofuro[3,2-d]pyrimidin-4-yl)-4-(2-oxo-2-(quinolin-7-ylamino)ethyl)pyrrolidine-2-carboxylic acid]",2500 to 10000,500 to 1000,< 50,2500 to 10000,1 to 5,–
"Cc1nc(N2C[C@@H](CC(=O)Nc3ccc(-c4ccnc(N)c4)cc3)C[C@H]2C(=O)O)c2oc3ccccc3c2n1 [Compound 41, (28.4R)-4-(2-((4-(2-aminopyridin-4-yl)phenyl)amino)-2-oxoethyl)-1-(2-methylbenzofuro[3,2-d]pyrimidin-4-yl)pyrrolidine-2-carboxylic acid]",> 20000,500 to 1000,100 to 200,> 20000,–,–
"Cc1nc(N2C[C@@H](CC(=O)Nc3ccc(-c4cccc(N)n4)cc3)C[C@H]2C(=O)O)c2oc3ccccc3c2n1 [Compound 42, (2S,4R)-4-(2-((4-(6-aminopyridin-2-yl)phenyl)amino)-2-oxoethyl)-1-(2-methylbenzofuro[3.2-d]pyrimidin-4-yl)pyrrolidine-2-carboxylic acid]",> 20000,500 to 1000,50 to 100,> 20000,–,–
"Cc1nc(N2C[C@@H](CC(=O)Nc3ccc(-c4cccc(O)c4)cc3)C[C@H]2C(=O)O)c2oc3ccccc3c2n1 [Compound 51, (2S,4R)-4-(2-((3′-hydroxy-[1,1′-biphenyl]-4-yl)amino)-2-oxoethyl)-1-(2-methylbenzofuro[3,2-d]pyrimidin-4-yl)pyrrolidine-2-carboxylic acid]",10000 to 20000,< 200,< 50,> 20000,–,–
"Cc1nc(N2C[C@@H](CC(=O)Nc3ccccc3F)C[C@H]2C(=O)O)c2oc3ccccc3c2n1 [Compound 20, (2S,4R)-4-(2-((2-fluorophenyl)amino)-2-oxoethyl)-1-(2-methylbenzofuro[3,2-d]pyrimidin-4-yl)pyrrolidine-2-carboxylic acid]",> 20000,> 5000,200 to 1000,–,1 to 5,–
"Cc1nc(N2C[C@@H](CC(=O)Nc3ccc(OC(F)(F)F)cc3)C[C@H]2C(=O)O)c2oc3ccccc3c2n1 [Compound 12, (2S,4R)-1-(2-methylbenzofuro[3,2-d]pyrimidin-4-yl)-4-(2-oxo-2-((4-(trifluoromethoxy)phenyl)amino)ethyl)pyrrolidine-2-carboxylic acid]",1000 to 2500,> 5000,200 to 1000,2500 to 10000,5 to 10,–
"Cc1nc(N2C[C@@H](CC(=O)Nc3ccc(C(F)(F)F)cc3)C[C@H]2C(=O)O)c2oc3ccccc3c2n1 [Compound 24, (28.4R)-1-(2-methylbenzofuro[3,2-d]pyrimidin-4-yl)-4-(2-oxo-2-((4-(trifluoromethyl)phenyl)amino)ethyl)pyrrolidine-2-carboxylic acid]",10000 to 20000,1000 to 5000,200 to 1000,10000 to 20000,1 to 5,–
